Measurements reported in paper PMC8709997, “Long-term memory T cells as preventive anticancer immunity elicited by TuA-derived heteroclitic peptides” (Journal of Translational Medicine, 2021).
Several values for one entry are separate records, joined by “and”; a condition that tells them apart may be missing. Equal values may be shown once.

Legend:
H-2 Db molecule = H-2 Db molecule (Mus musculus, UniProt P01899); experiment: Peptide binding to H-2 Db on TAP-deficient RMA-S cells (flow cytometry); format: cell-based, murine; conditions: RMA-S cells loaded with sub-optimal 1 μM peptide, mean fluorescence intensity
Sequence of H-2 Db molecule (P01899 whole entry, looked up): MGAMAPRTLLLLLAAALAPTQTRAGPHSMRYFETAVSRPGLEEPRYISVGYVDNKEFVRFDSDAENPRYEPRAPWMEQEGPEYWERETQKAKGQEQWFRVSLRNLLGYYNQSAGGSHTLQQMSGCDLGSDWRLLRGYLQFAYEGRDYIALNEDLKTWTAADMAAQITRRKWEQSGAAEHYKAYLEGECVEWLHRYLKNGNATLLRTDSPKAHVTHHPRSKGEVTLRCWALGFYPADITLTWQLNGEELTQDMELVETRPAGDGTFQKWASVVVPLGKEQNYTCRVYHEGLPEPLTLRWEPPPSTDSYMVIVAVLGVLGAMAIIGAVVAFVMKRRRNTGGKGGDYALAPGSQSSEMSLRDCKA
Experimental: In order to experimentally confirm the binding and stability of heteroclitic peptides to H-2 Db molecule, the H-2 Db positive RMA-S cell line was loaded with a sub-optimal concentration of 1 μM of peptides.
Supplementary file 12967_2021_3194_MOESM1_ESM.pptx: Additional file 1: Fig. S1. Predicted affinity of wt and hPep peptides. The affinity to H2-Db were predicted by NetMHCpan 4.1 for wt and heteroclitic peptides. The affinity (Aff) values are expressed in nanomolarity (nM). The selected hPep peptides are indicated for both E7 and Trp2 peptides. Fig. S2. Experimental affinity of wt and hPep peptides. Binding to H2-Db molecule was assessed in TAP-deficient RMA-S cells loaded with the indicated peptides. Mean fluorescence intensity at flow cytometer indicates binding levels of peptides to HLA molecules. Fig. S3. Comparison of short-term and long-term immunization. The curve of tumor growth in the short-term and long-term immunization experiments for the B16 (A) and TC1 (B) is indicated for each individual animal. The Kaplan-Meyer curves for the B16 (C) and TC1 (D) is indicated.

[1] = tested on: TC-1 tumor cells expressing HPV16 E7 protein; experiment: Preventive immunization and TC1 tumor challenge; format: in vivo, C57BL/6 mice
Experimental: (§1) C57BL/6 (H-2-Db) female mice, 8 weeks old, were purchased from Harlan (Udine, Italy). All animals were housed at the Animal Facility of the Istituto Nazionale Tumori “Pascale” (Naples, Italy). Mice were housed in number of 2–3 per cage and maintained in a conventional facility on a 12 h light:12 h dark cycle (lights on at 7:00 a.m.) in a temperature-controlled room (22 ± 2 °C) and with food and water ad libitum at all times. The experimental protocols were in compliance with the European Communities Council directive (86/609/EEC).
(§2) Mouse melanoma B16F10 (ATCC, CRL-6323) cells were cultured in DMEM medium supplemented with 10% heat inactivated FBS, 100 U/ml penicillin and […] streptomycin (Invitrogen, Carlsbad, CA) at 37 °C with 5% CO2. Cells were tested for mycoplasma before inoculation in mice (ATCC®, 30-1012 K™). Mouse lung TC-1 tumor cells expressing HPV16 E7 protein (ATCC, CRL-2493), were cultured in RPMI medium supplemented with 10% heat inactivated FBS, 100 U/ml penicillin and […] streptomycin (Invitrogen, Carlsbad, CA), HEPES 10 mM, MEM 0.1 mM and Na Piruvate 1 mM at 37 °C with 5% CO2.
(§3) B16F10 and TC1 cells were harvested in exponential growth phase by trypsinization and washed twice with ice-cold PBS. C57BL/6 mice were subcutaneously injected with 5 × 10^4 and 1 × 10^5 cells/mouse of B16F10 or TC1 respectively on the right back flank. A cell aliquot (200μL) containing 1 × 10^6 cells was loaded in 21G syringes for intra-splenic injection. The tumor size was measured and documented every two days with a caliper, starting on day 7, and calculated using the formula (AxB^2)/2 (A as the largest and B is the smallest diameter of tumor). Tumor growth was documented as mean tumor size with standard error. To record the survival of the tumor-bearing mice, either natural death or a tumor diameter greater than 1500 mm^3 leading to death was counted as death.
(§4) Cyclophosphamide (CTX) (Endoxan®, Baxter) (10 mg/Kg) and Paclitaxel (PTX) (Taxol®, BMS) (5 mg/Kg) diluted with phosphate-buffered saline (PBS) were administered via intraperitoneal injection (i.p.). The dose was extrapolated to human equivalent dose (HED). Metronomic Chemotherapy was weekly administered one day before the vaccine administration until the end of the experiment. An anti-mouse PD-1 MAb (BioXCell, West Lebanon, NH USA) was used as checkpoint inhibitor (CI) and administered via intraperitoneal injection (i.p.) at a dose of 100 μg.
Preventive experimental setting was performed as follow: C57BL/6 mice were immunized once a week for 4 weeks by subcutaneous administration (s.c.) with WT 100ug or a mix of equimolar ratio of heteroclitic peptides (100 ug tot) formulated in 50ug PolyI:C. At the end of the immunization protocol, a group of animals were implanted with of B16F10 or TC1 cell lines (short-term memory group). In parallel, a second group was left for 2 months without any further treatment before implantation of the same number of cells (long-term memory group). Immunizations were performed in combination with metronomic chemotherapy (MCT) and CI [24–26]. One group was treated only with MCT and CI (MCT + CI group). Control mice were treated with endotoxin-free phosphate-buffered saline (PBS). At the time of sacrifice, whole blood was collected by puncture of the sinus retro-orbital vein prior analgesia with oxybuprocaine chlorhydrate (Fig. 1).
Animals were immunized in a preventative setting with either the wt or the heteroclitic E7 and Trp2 peptides. At the end of the full vaccination protocol, animals were challenged with 5 × 10^5 TC1 or 1 × 10^4 B16 tumor cells, respectively.
In order to assess the anti-tumor efficacy of the long-term memory induced by the vaccination, animals were left free of active immunization for 2 months. Animals were then challenged with 5 × 10^5 TC1 or 1 × 10^4 B16 tumor cells, respectively. […] Similarly, in the TC1 model, the long-term immunity was unable to control tumor growth as for the short-term immune response. […]

IFN-γ secreting T cells [2] = experiment: IFN-γ ELISpot on PBMCs, TC1 experimental group; format: cell-based, C57BL/6 mice; conditions: PBMC pools re-stimulated with 10 ug/ml single peptides
Experimental: (§5) ELISPOT was performed according to BD Biosciences manufacturer instructions (BD ELISPOT Mouse IFN-γ ELISPOT Set cod. 551,083). 5 × 10^5 splenocytes or 2 × 10^5 PBMCs from pooled samples were counted, plated in each well and stimulated with 10ug/ml of single peptides used for the immunization and incubated for 24-26 h. As negative and positive control, peptide diluents PBS and 5ug/ml of phorbol myristate acetate (PMA, Sigma-Aldrich) were used respectively. Plates were read with an AID EliSpot Reader Systems (AID GmbH, Strassberg, Germany). The results were calculated as spot forming counts as a mean of a duplicate count from the specific antigen stimulation minus the negative control.
(§6) Fig. 5 Immunological evaluation in the short-term immunization. Blood samples were drawn during the experiment from retro-orbital veins and PBMCs were isolated. Interferon-γ (IFN-γ) secreting T cells were evaluated in vitro after O/N re-stimulation with individual peptides. Pool of samples were used for each experimental groups. A and B B16 group; C and D TC1 group. SFU IFN-γ spot forming units
Fig. 7 Immunological evaluation in the long-term immunization. Blood samples were drawn during the experiment from retro-orbital veins and PBMCs were isolated. Interferon-γ (IFN-γ) secreting T cells were evaluated in vitro after O/N re-stimulation with individual peptides. […]

IFN-γ secreting T cells [3] = experiment: IFN-γ ELISpot on PBMCs, B16 experimental group; format: cell-based, C57BL/6 mice; conditions: for vaccine-specific IFN-γ immune response: PBMC pools re-stimulated with 10 ug/ml single peptides; for cross-reactivity with the wt: PBMC pools, IFN-γ ELISpot
Experimental: as §5, §6
Fig. 7 Immunological evaluation in the long-term immunization. Blood samples were drawn during the experiment from retro-orbital veins and PBMCs were isolated. Interferon-γ (IFN-γ) secreting T cells were evaluated in vitro after O/N re-stimulation with individual peptides. Pool of samples were used for each experimental groups. A–C B16 group; D–F TC1 group. WT NEG animals in the WT group with no sign of tumor growth, HET NEG animals in the Heteroclitic group with no sign of tumor growth

B16F10 cells = experiment: Preventive immunization and B16 tumor challenge; format: in vivo, C57BL/6 mice
Experimental: as §1, §2, §3, §4
Preventive experimental setting was performed as follow: C57BL/6 mice were immunized once a week for 4 weeks by subcutaneous administration (s.c.) with WT 100ug or a mix of equimolar ratio of heteroclitic peptides (100 ug tot) formulated in 50ug PolyI:C. […]

[4] = long-term: TC1 challenge 2 months after vaccination

Sequence: RAHANIVTF [A4-E7, heteroclitic E7 peptide, Y4 to A substitution]
- binding to the H2-Db molecule relative to wt (H-2 Db molecule): equivalent or higher than the wt

Sequence: RAHYHIVTF [H5-E7, heteroclitic E7 peptide, N5 to H substitution]
- binding to the H2-Db molecule relative to wt (H-2 Db molecule): complete loss of binding

Sequence: RAHYNIVTF [WT-E7]
- animals still alive (n/N) [1, 4]: 3/7
- tumor-free animals [1, 4]: 1
- effect on tumor growth ([1]; long-term: TC1 challenge 2 months after vaccination, compared to controls): significantly delayed
- animals showing late tumor growth ([1]; short-term TC1, growth at day 42 and day 51 post-challenge, follow up to day 60, data not shown): two animals
- survival ([1]; short-term: TC1 challenge at end of vaccination): 100%
- effect on tumor growth ([1]; short-term: TC1 challenge at end of vaccination, up to day 34): completely inhibit the tumor growth

Sequence: RAIYNIVTF [I3-E7, heteroclitic E7 peptide, H3 to I substitution]
- binding to the H2-Db molecule relative to wt (H-2 Db molecule): equivalent or higher than the wt
- vaccine-specific IFN-γ immune response (IFN-γ secreting T cells [2]; long-term setting): immunodominant
- vaccine-specific IFN-γ immune response (IFN-γ secreting T cells [2]; short-term setting): immunodominant

Sequence: SVCDFFVWL [C3-Trp2, heteroclitic Trp2 peptide, Y3 to C substitution]
- binding to the H2-Db molecule relative to wt (H-2 Db molecule): equivalent binding

Sequence: SVYAFFVWL [A4-Trp2, heteroclitic Trp2 peptide, D4 to A substitution]
- binding to the H2-Db molecule relative to wt (H-2 Db molecule): equivalent binding
- vaccine-specific IFN-γ immune response (IFN-γ secreting T cells [3]; long-term setting): immunodominant
- cross-reactivity with the wt (IFN-γ secreting T cells [3]; long-term setting): low cross-reactivity
- vaccine-specific IFN-γ immune response (IFN-γ secreting T cells [3]; short-term setting): immunodominant
- cross-reactivity with the wt (IFN-γ secreting T cells [3]; short-term setting): low cross-reactivity

Sequence: SVYDFFVWL [WT-Trp2]
- vaccine-specific IFN-γ immune response (IFN-γ secreting T cells [3]; long-term setting): strong and comparable
- vaccine-specific IFN-γ immune response (IFN-γ secreting T cells [3]; short-term setting): strong and comparable
- survival of animals (B16F10 cells; long-term: B16 challenge 2 months after vaccination, day 27 post-challenge): all animals in the wt group reached the threshold for euthanasia
- effect on tumor growth (B16F10 cells; short-term: B16 challenge at end of vaccination): significantly delay tumor growth
- animals still alive (n/N) (B16F10 cells; short-term: B16 challenge at end of vaccination, 34 days post-challenge, 100 ug peptide s.c. weekly x4 in 50 ug PolyI:C, with MCT and CI): 2/6
- animals still alive / survival (B16F10 cells; short-term: B16 challenge at end of vaccination, 34 days post-challenge, with PolyI:C, MCT and CI): 33.3% and 33%

Sequence: SVYDNFVWL [N5-Trp2, heteroclitic Trp2 peptide, F5 to N substitution]
- binding to the H2-Db molecule relative to wt (H-2 Db molecule): much better than the wt
